Measured values as given in BigSolDB 2.1.

CCCc1nc2c(C)cc(-c3nc4ccccc4n3C)cc2n1Cc1ccc(-c2ccccc2C(=O)O)cc1
Conditions	solubility (mole fraction)
in acetone, 278.55 K	4.42e-05
in acetone, 287.45 K	5.71e-05
in acetone, 294.55 K	7.76e-05
in acetone, 303.85 K	9.45e-05
in acetone, 308.75 K	0.000112
in acetone, 316.25 K	0.000141
in acetone, 325.75 K	0.000193
in benzene, 278.55 K	6.95e-05
in benzene, 288.45 K	0.000111
in benzene, 299.85 K	0.000163
in benzene, 307.25 K	0.000236
in benzene, 316.15 K	0.000289
in benzene, 324.35 K	0.000361
in benzene, 333.35 K	0.000488
in chloroform, 278.75 K	0.00533
in chloroform, 289.45 K	0.00624
in chloroform, 296.95 K	0.00701
in chloroform, 298.15 K	0.00725
in chloroform, 303.95 K	0.00747
in chloroform, 308.35 K	0.00771
in chloroform, 313.15 K	0.00799
in dichloromethane, 278.35 K	0.0015
in dichloromethane, 286.55 K	0.00177
in dichloromethane, 293.95 K	0.00205
in dichloromethane, 298.05 K	0.00216
in dichloromethane, 305.25 K	0.00246
in dichloromethane, 308.35 K	0.00261
in dichloromethane, 311.75 K	0.00272
in ethanol, 277.85 K	3.06e-05
in ethanol, 288.45 K	4.57e-05
in ethanol, 298.45 K	6.33e-05
in ethanol, 308.35 K	9e-05
in ethanol, 313.45 K	0.000117
in ethanol, 329.75 K	0.000219
in ethanol, 333.65 K	0.000255
in ethyl acetate, 283.65 K	2.47e-05
in ethyl acetate, 293.35 K	4.17e-05
in ethyl acetate, 303.65 K	5.9e-05
in ethyl acetate, 305.35 K	6.26e-05
in ethyl acetate, 317.95 K	8.83e-05
in ethyl acetate, 329.45 K	0.000123
in ethyl acetate, 333.65 K	0.000148
in isopropanol, 288.45 K	1.55e-05
in isopropanol, 298.05 K	2.77e-05
in isopropanol, 309.55 K	4.1e-05
in isopropanol, 316.55 K	5.62e-05
in isopropanol, 321.55 K	7.41e-05
in isopropanol, 329.55 K	0.000106
in isopropanol, 338.35 K	0.000157
in methanol, 278.45 K	6.03e-05
in methanol, 288.55 K	8.9e-05
in methanol, 299.85 K	0.000132
in methanol, 307.35 K	0.000153
in methanol, 313.25 K	0.000186
in methanol, 324.85 K	0.000271
in methanol, 330.05 K	0.000315
in toluene, 278.65 K	3.55e-05
in toluene, 288.45 K	6.08e-05
in toluene, 300.05 K	8.4e-05
in toluene, 306.35 K	0.000125
in toluene, 316.75 K	0.000169
in toluene, 325.85 K	0.000225
in toluene, 334.55 K	0.000307
